The values that follow come from US4089974A, “5-Carboxy-phenylenebis(carbonylimino)benzene carboxylic and dicarboxylic acids and salts” (American Cyanamid Company, priority 1977, dated 1978).

One assay has as its system complement system. The following applies: cited from earlier work; for anticomplementary effect: British Journal of Experimental Pathology, 33, 327-339 (1952).
The test system of assay [1] is hereditary angioneurotic edema. The following applies: The New England Journal of Medicine, 286, 808-812 (1972); cited from earlier work.
Assay [2] relates to Citrated sheep plasma (CSP). Description: in vitro anti-coagulant activity (AC), citrated sheep plasma clotting. The format is biochemical. The method, then: The sheep RBC's, kept in suspension throughout the clotting incubation time, become enmeshed in the fibrin matrix if a clots forms. Upon centrifugation of the plate, untrapped RBC's form buttons, the sizes of which correspond to the degree of clot inhibition; this providing a measure of anti-coagulant activity (AC). Sodium heparin is used as a positive control and activity is reported in wells appearing in Table I.

Assay [3] in a line: Intrinsic Therapeutic Index (Code 026 versus AC). The following applies: Table II. An excerpt:
The computation of an Intrinsic Therapeutic Index (ITI) was devised to correlate the results, expressed in wells, obtained in the in vitro Code 026 (C1 inhibitor) test and the in vitro anti-coagulant (AC) test into a meaningful value which would aid in the net evaluation of the activity of the compounds of this invention.
The ITI of a given compound may be defined as the antilogarithm of the logarithmic (base 2) difference between the highest serial dilution in wells which is active in the Code 026 test and the highest serial dilution in wells providing activity in the anti-coagulant test. The ITI is thus a measure of the separation of anti-complement and anti-coagulant activities; the higher the numerical value the more therapeutically useful the separation of activities.

A further assay deals with human C1. Description: Test, Code 026 (C1 inhibitor). It counts as biochemical. The text has this: An active inhibitor protects C2 from C1 and C4; (ii) Test, Code 035 (C3-C9 inhibitor) -- This test determines the ability of the late components of human complement (C3-C9) to lyse EAC 142 in the presence of appropriate dilutions of the test compound. An active inhibitor protects EAC 142 from lysis by human C3-C9; (iii) Test, Code 036 (C-Shunt inhibitor) -- In this test human erythrocytes rendered fragile are lysed in autologous serum via the shunt pathway activated by cobra venom factor in the presence of appropriate dilutions of the test compound. Inhibition of the shunt pathway results in failure of lysis; (iv) Forssman Vasculitis Test -- Here, the well known complement dependent lesion, Forssman vasculitis, is produced in guinea pigs by intradermal injection of rabbit anti-Forssman antiserum. […]

Structures can show the parent of a compound that is named as a salt.

`Nc1ccc2cc(S(=O)(=O)O)cc(O)c2c1N=Nc1ccc(NC(=O)Nc2ccc(N=Nc3c(N)ccc4cc(S(=O)(=O)O)cc(O)c34)c(S(=O)(=O)O)c2)cc1S(=O)(=O)O` [chlorazol fast pink, 3,3'-ureylenebis-[6-(2-amino-8-hydroxy-6-sulfo-1-naphthylazo)]benzenesulfonic acid, tetrasodium salt]: the anticomplementary effect entry in the assay with complement system was “reported to have an anticomplementary effect”.
heparin: the anticomplementary effect result with complement system is given as “reported to have an anticomplementary effect”.
`NCCCCCC(=O)O` [epsilon-aminocaproic acid]: the “treatment of hereditary angioneurotic edema” value (“treatment” for short) in assay [1] is given as “used with success”.
On to `O=C([O-])c1cc(C(=O)Nc2ccc(C(=O)[O-])c(C(=O)[O-])c2)cc(C(=O)Nc2ccc(C(=O)[O-])c(C(=O)[O-])c2)c1.[Na+].[Na+].[Na+].[Na+].[Na+]` [4,4'-[5-Carboxy-1,3-phenylenebis(carbonylimino)]-diphthalic acid pentasodium salt], for which, in assay [2] (Table I, two-fold serial dilution assay, sodium heparin positive control), the “AC Wells” value was ≤ -2 Wells. The “Anti-Coagulant Activity (Wells) AC” value in assay [2] (Table II, in vitro) was -2 Wells. For the same compound, the “Intrinsic Therapeutic Index” value in assay [3] (antilogarithm of the logarithmic (base 2) difference) was determined as 16. For the same compound, in assay [3] (log base 2 difference, Code 026 minus AC), the “Logarithmic Difference Expressed as Wells” value is listed as “+4 Wells”. For the same compound, in the assay on human C1 (Table I, two-fold serial dilution assay, higher well number indicates higher activity), the “C1 026 Wells” value is listed as “+2 Wells”. Further, in the assay with human C1 (Table II, in vitro), the “Complement Inhibiting Activity (Wells) Code 026” value is “+2 Wells”.
On to `Cc1ccc(C(=O)Nc2ccc(S(=O)(=O)O)c3cc(S(=O)(=O)O)cc(S(=O)(=O)O)c23)cc1NC(=O)c1cccc(NC(=O)Nc2cccc(C(=O)Nc3cc(C(=O)Nc4ccc(S(=O)(=O)O)c5cc(S(=O)(=O)O)cc(S(=O)(=O)O)c45)ccc3C)c2)c1` [Suramin, 8-(3-benzamido-4-methylbenzamido)naphthalene-1, -3,5-trisulfonic acid], for which the “inhibition of the complement system” value in the assay on complement system (Clin. Exp. Immunol., 10, 127-138 (1972)) was “competitive inhibitor of the complement system”. Also, the “treatment” value in assay [1] is listed as “used with success”.
For `NC[C@H]1CC[C@H](C(=O)O)CC1` [tranexamic acid], in assay [1], the “treatment” value was “used with success”.
